What all share (format): cell-based
Test [1] concerns Salmonella paratyphi (CMCC(B)50094-2-9). Kind of test: MIC, broth dilution in 96-well plate. As to conditions: 10^6 CFU/ml, overnight 37 °C, visual clarity, performed at least three times. From the text: (§1) Cycloviolacin O2, known for its antimicrobial, hemolytic, and insecticidal activities, has been more extensively investigated[4],[20],[36]–[38]. Viba 11, originally discovered in Viola baoshanensis[39] and found in other plants such as Viola tricolor[40], Viola betonicifolia, and Viola philippica, lacks biological activity studies. These two cyclotides and vija 10 are high in content and easy to purify, and cycloviolacin O2 can also be used as a positive control to conduct activity study. In addition, few vija12 and 31 were extracted for antibacterial experiments. All purified cyclotides underwent antibacterial testing against Gram-positive bacterium Staphylococcus aureus (CMCC(B)26003-2-10) and Bacillus subtilis (CMCC(B)63501), Gram-negative bacteria, including Acinetobacter baumannii (ATCC19606), Escherichia coli (CMCC(B)44102-2-6), and Salmonella paratyphi (CMCC(B)50094-2-9). […] In addition, the MICs of viba 11, cycloviolacin O2 and vija 10 against B. subtilis were respectively 5.4 μM, 2.1 μM and 14.3 μM (Table 1). […] Therefore, it is hypothesized that the lower antimicrobial activity of vija 10 may be attributed to the presence of only one Lys residue in loop 5.
(§2) Bacterial fluids are cultured overnight at 37 °C. The next day, the bacterial liquids are diluted to a concentration of 10^6 CFU/ml. Prepare different concentrations of cyclotide drugs and kanamycin sulfate in advance, and sequentially add the drugs and bacterial liquid to the 96-well plate. Negative controls consisted of sterile water and bacterial liquid. The plate is cultured overnight at 37 °C and observe whether the solution remains clear to see the growth of the bacterial suspension. Each test was performed three times at least.
In general terms: In broth dilution the organism is exposed to a series of concentrations in liquid medium.

The subject of test [2] is Staphylococcus aureus (CMCC(B)26003-2-10). Kind of test: MIC, broth dilution in 96-well plate. To be noted: 10^6 CFU/ml, overnight 37 °C, visual clarity, performed at least three times.
Text: as §1, §2

In test [3] the test system is Bacillus subtilis. Kind of test: DAPI/PI staining, laser scanning confocal microscopy (membrane integrity). To be noted: B. subtilis 10^8 CFU/mL, 37 °C, 1-2 h, DAPI and PI staining. From the text:
Many naturally occurring antimicrobial peptides (AMPs) are cationic. Cationic AMPs (CAMPs) exert bactericidal activity by mechanisms featuring cell membrane disruption. Cyclotides are likely to kill germ by disrupting their membranes. Laser scanning confocal microscopy can be used to study the ability of cyclotides to destroy bacterial membrane. 4′, 6-diaminyl-2-phenylindole (DAPI) is a blue fluorescent dye that can penetrate membranes and stain both living and dead strains, while propyl iodide (PI) stains only strains with damaged membranes, glowing red[46],[47]. In this study, the bracelet cyclotide family members viba 11 and vija 10 interacted with A. baumannii and B. subtilis in their logarithmic phase at 37 °C for 1–2 h. After the addition of DAPI and PI fluorescent dyes, the samples were incubated in a dark room at room temperature for 15 min for staining. The stained samples were then centrifuged to concentrate, resuspended, and applied to a slide for observation using a confocal laser scanning microscope (FLUOVIEW FV3000, Olympus). […] With increasing concentration, the blue and red fluorescence gradually overlapped. […] However, the magnification is not sufficient to detect further details of membrane disruption. Therefore, further exploration can be conducted using methods such as scanning electron microscopy (SEM) to study the antibacterial mechanism in depth.
Figure 5 Study on the antimicrobial mechanism of cyclotides. (A) Incubation of Acinetobacter baumannii with sterile water, 1 MIC and 4 MIC of viba 11. (B) Incubation of Bacillus subtilis with sterile water, 1 MIC and 4 MIC of vija 10. All samples were stained with DAPI and PI. The negative control group PI is not stained and the membrane is intact, while the membrane treated with cyclotides was stained and the membrane are destroyed. Scale bar: 20 μm. Magnification: 600×.
Take 50 μL of A. baumannii and B. subtilis (10^8 CFU/mL), and add 50 μL of sterile water, different concentrations of cyclotides viba 11 and vija 10 to achieve final concentrations of 1 MIC and 4 MIC respectively. Incubate at 37 °C for 1–2 h. Subsequently, add 4,6-diamino-2-phenylindole (DAPI) and propidium iodide (PI) dyes at 20 μg/mL each, and incubate in the dark for 15 min. Centrifuge at 5000 rpm for 3 min to concentrate, discard the majority of the supernatant, and resuspend the bacteria in the remaining small volume of liquid. Mix well and take 10 μL of the stained sample onto a glass slide, gently place a cover slip on top with forceps, avoiding the formation of bubbles during the pressing process. After sealing the cover slip, check with a laser confocal microscope, and the observation was conducted using an objective lens with the maximum magnification of 60 × . […]

Test [4] deals with Bacillus subtilis. Kind of test: Time killing kinetics. To be noted: about 10^6 CFU/mL, LB, 37 °C, colony count. Here is the method: In this study, we investigated the time-kill kinetics characteristics of plant cyclotides against bacteria. […] It is worth noting that due to experimental constraints, there was a slight discrepancy of a few minutes between theoretical 0 h and actual 0 h. […] Furthermore, we also conducted time-kill kinetics studies using vija 10 against B. subtilis.
Figure 4 (A) The Acinetobacter baumannii time killing kinetics of cycloviolacin O2 at concentration of 1 MIC, 2 MIC, 4 MIC and 8 MIC at 37 °C. (B) The Bacillus subtilis time killing kinetics of vija 10 at concentration of 1 MIC, 2 MIC, 4 MIC at 37 °C. Each test was performed three times at least.
Incubate A. baumannii and B. subtilis in fresh nutrient LB broth at 37 °C until logarithmic growth stage, then dilute to approximately 10^6 CFU/mL, and incubate with cycloviolacin O2 at concentrations of 1 MIC, 2 MIC, 4 MIC, 8 MIC with A. baumannii and vija 10 at concentrations of 1 MIC, 2 MIC, 4 MIC with B. subtilis respectively. Taking the mixture at time points of 0 h, 0.5 h, 1 h, 1.5 h and 2 h, dilute and coat it to solid medium for 24 h. Count the number of colonies on solid culture medium. Each test was performed three times at least. Plotting a line graph with time on the x-axis and bacterial survival on the y-axis using GraphPad Prism 8. Statistical analysis of bacterial viability at different time points to determine the bactericidal and bacteriostatic effects of cyclotides.

Residues, ends and D or L forms follow the SMILES beside them. Where only a bound is given, the exact number is not on record here.

The MIC is the lowest concentration that inhibits growth of the organism. The low end stands for a more susceptible organism, the high end for a less susceptible organism. On to `CC[C@H](C)[C@@H]1NC(=O)[C@@H]2CSSC[C@@H]3NC(=O)[C@H](C(C)C)NC(=O)[C@H](CCCCN)NC(=O)[C@H](CO)NC(=O)[C@H](CO)NC(=O)[C@@H]4CSSC[C@H](NC(=O)[C@H](CO)NC(=O)[C@H](CCC(=O)O)NC(=O)CNC(=O)[C@H](CSSC[C@H](NC(=O)CNC(=O)[C@H](CC(C)C)NC(=O)[C@H](CC(C)C)NC(=O)[C@H](C)NC(=O)[C@H](CO)NC1=O)C(=O)N[C@@H](CO)C(=O)N4)NC(=O)[C@@H]1CCCN1C(=O)[C@H]([C@@H](C)CC)NC(=O)[C@H](CO)NC(=O)CNC(=O)[C@H](CC(N)=O)NC(=O)[C@H](CCCCN)NC(=O)[C@H](Cc1ccc(O)cc1)NC3=O)C(=O)N[C@@H](C(C)C)C(=O)N[C@@H](Cc1ccccc1)C(=O)N[C@@H]([C@@H](C)CC)C(=O)N1CCC[C@H]1C(=O)N2` [vija 10] (HELM PEPTIDE1{A.L.L.G.C.S.C.S.S.K.V.C.Y.K.N.G.S.I.P.C.G.E.S.C.V.F.I.P.C.I.S}$PEPTIDE1,PEPTIDE1,5:R3-20:R3|PEPTIDE1,PEPTIDE1,7:R3-24:R3|PEPTIDE1,PEPTIDE1,12:R3-29:R3|PEPTIDE1,PEPTIDE1,1:R1-31:R2$$$V2.0), for which the MIC in test [1] and in test [2] was greater than 28.5 µM throughout. Further, the “membrane integrity (PI red fluorescence)” value in the test with Bacillus subtilis [3] (1 MIC) is on record as “caused damage to the membrane integrity”; with Bacillus subtilis [3] (4 MIC) it was “majority of the cell membranes were ruptured”. Moreover, in the test on Bacillus subtilis [4] (2 MIC), the “time of treatment to complete eradication of B. subtilis” value is listed as 2 h. Also, the “time of treatment to effective killing of B. subtilis” value in the test on Bacillus subtilis [4] (4 MIC) was found to be 1 h.

Source of the values: PMC11056381, “Characterization and evaluation of cytotoxic and antimicrobial activities of cyclotides from Viola japonica” (Scientific Reports, 2024).
